Assay results taken from US20180296531A1, “STIMULATION OF 11B-HSD2 EXPRESSION TO IMPROVE HORMONAL THERAPY OF STEROID-DEPENDENT DISEASE” (THE CLEVELAND CLINIC FOUNDATION, priority 2015, published 2018).

Tested on: PSA, KLF9, PMEPA1 expression
Assay: Steroid-induced gene expression (PSA, KLF9, PMEPA1) by qPCR in long-term Enz-treated LAPC4 cells
Format: cell-based, human
Conditions: LAPC4 treated with Enz 36 days, steroid 24 hours
Protocol: LAPC4 cells were treated with Enz for 36 days and then seeded into 12 well plates coated with poly-DL-ornithine at 50% confluence. […] Total RNA was extracted with a GenElute Mammalian Total RNA miniprep kit (Sigma-Aldrich) and 1 μg RNA was reverse-transcribed to cDNA with the iScript cDNA Synthesis Kit (Bio-Rad). An ABI 7500 Real-Time PCR machine (Applied Biosystems) was used to perform the qPCR analysis, using iTaq Fast SYBR Green Supermix with ROX (Bio-Rad) in 96-well plates at a final reaction volume of 10 μl. The qPCR analysis was carried out in triplicate with suitable primers. Each mRNA transcript was quantitated by normalizing the sample values to RPLP0 and to vehicle treated cells (for steroid treated cells). All gene expression studies were repeated in independent experiments.

Compound	PMEPA1 expression	KLF9 expression	PSA expression
C[C@]12CCC(=O)C[C@@H]1CC[C@@H]1[C@@H]2CC[C@]2(C)[C@@H](O)CC[C@@H]12 [DHT, 5α-dihydrotestosterone]	induced with DHT only	–	–
C[C@]12CCC(=O)C=C1CC[C@@H]1[C@@H]2[C@@H](O)C[C@@]2(C)[C@H]1CC[C@]2(O)C(=O)CO [cortisol]	–	induced	cortisol induction of PSA expression
